From US20250339443A1, “METHOD FOR TREATING OR PREVENTING CALCIUM RELEASE-ACTIVATED CALCIUM CHANNEL OR DISCOIDIN DOMAIN RECEPTOR 2 RELATED DISORDERS OR CONDITIONS” (LumiSTAR Biotechnology, Inc., priority 2023, published 2025)
Structures can show the parent of a compound that is named as a salt.

Key:
[1] = system: THP-1 derived macrophages; experiment: Cytokine secretion in macrophages (ELISA); format: cell-based, human; conditions: IFN-γ/LPS induction, culture medium
Jurkat T cells = experiment: Cytokine secretion in T cells (ELISA); format: cell-based, human; conditions: PHA/PMA induction, culture medium
CRAC channel = CRAC channel (Homo sapiens, UniProt Q96D31); experiment: CRAC channel activity / SOCE by Fura 2-AM cytosolic Ca2+ imaging in HEK293T cells; format: cell-based; set-up: endogenous in cells; host or cells: HEK293T; conditions: 10 μM, 1 μM thapsigargin then 2 mM Ca2+
Procedure: CRAC channel activity was evaluated by applying 1 μM thapsigargin (Thap.) in a calcium-free solution to deplete the endoplasmic reticulum calcium store, followed by the reintroduction of 2 mM Ca^2+ in an external solution. The concentration of cytosolic calcium ions increases as calcium flows through the CRAC channel, leading to the second peak in cytosolic calcium waves. […] Each bar represents the mean value derived from 47 to 103 cells. […] Each bar represents the mean value derived from 83 to 176 cells. […] Further analyses are presented in FIG. 1I and FIG. 1J, where the second peak of each wave and rate of entry were analyzed. Each bar represents the mean value derived from 72 to 108 cells. […] In all the graphs, each bar represents mean±SEM and *, **, and *** denote p-value <0.05, 0.01, and 0.001, respectively.
Cells were then washed and incubated with the same solution in addition to the supplement of Fura 2-AM for another 15 minutes for fully de-esterification. […] 1 μM thapsigargin was added to induce endoplasmic reticulum (ER) calcium store depletion followed by applying 2 mM calcium solution to assess the activation of calcium release-activated calcium (CRAC) channels. Cells were alternately excited at 340 and 380 nm, and images were acquired every 2 seconds. […] All the images were analyzed by using IGOR Pro software. […]

DDR2 = target: T1, DDR2 (Homo sapiens, UniProt Q16832); experiment: DDR2 activation (anti-phosphotyrosine Western blot) in HEK293T cells overexpressing DDR2, collagen-stimulated; format: cell-based; conditions: 10 μM pretreatment 30 minutes, then 50 μg/mL type I collagen 12 hours
T1 construct: expressed in transfected cells; host or cells: HEK293T
T1 sequence (Q16832 22-855): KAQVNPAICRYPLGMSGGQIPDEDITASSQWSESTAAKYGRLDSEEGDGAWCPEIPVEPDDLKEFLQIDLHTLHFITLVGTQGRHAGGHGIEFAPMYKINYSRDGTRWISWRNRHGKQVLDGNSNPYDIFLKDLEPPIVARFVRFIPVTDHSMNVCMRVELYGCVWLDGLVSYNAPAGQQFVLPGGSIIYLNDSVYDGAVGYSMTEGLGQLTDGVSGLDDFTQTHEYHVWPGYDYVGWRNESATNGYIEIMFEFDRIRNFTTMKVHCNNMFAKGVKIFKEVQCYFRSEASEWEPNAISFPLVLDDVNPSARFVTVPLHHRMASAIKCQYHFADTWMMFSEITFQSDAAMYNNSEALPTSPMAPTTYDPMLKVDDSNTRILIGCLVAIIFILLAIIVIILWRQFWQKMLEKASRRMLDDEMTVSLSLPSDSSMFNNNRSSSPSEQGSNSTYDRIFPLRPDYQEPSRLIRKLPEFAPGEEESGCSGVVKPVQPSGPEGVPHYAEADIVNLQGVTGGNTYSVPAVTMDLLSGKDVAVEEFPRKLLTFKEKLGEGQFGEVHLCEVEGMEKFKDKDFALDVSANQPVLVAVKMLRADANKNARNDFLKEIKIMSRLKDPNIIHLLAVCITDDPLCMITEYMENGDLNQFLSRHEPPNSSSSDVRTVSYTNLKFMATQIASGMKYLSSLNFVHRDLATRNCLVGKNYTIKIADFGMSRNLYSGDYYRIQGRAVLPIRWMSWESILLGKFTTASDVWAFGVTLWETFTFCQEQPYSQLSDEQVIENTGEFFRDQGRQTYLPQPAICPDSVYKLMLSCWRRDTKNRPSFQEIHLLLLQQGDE
Procedure: FIG. 1A, FIG. 1B, FIG. 1C, FIG. 1D, FIG. 1E, FIG. 1F, FIG. 1G, FIG. 1H, FIG. 1I, FIG. 1J, FIG. 1K, FIG. 1L, FIG. 1M, and FIG. 1N show WRG-28 and atovaquone (Av) suppress the activation of DDR2 and calcium release-activated calcium (CRAC) channel. FIG. 1A indicates HEK293T cells were transiently overexpressed with DDR2 and then pretreated with different compounds (10 μM), including WRG-28, Av, donepezil hydrochloride (Dh), terazosin hydrochloride (Th), verapamil and flecainide for 30 minutes. Verapamil and flecainide were used as negative control here. After that, cells were treated with 50 μg/mL type I collagen for 12 hours. Cell lysates were harvested and subjected to Western blot analysis with antibodies against phosphotyrosine antibody (clone 4G10), DDR2, and β-actin. […] CRAC channel activity was evaluated by applying 1 μM thapsigargin (Thap.) in a calcium-free solution to deplete the endoplasmic reticulum calcium store, followed by the reintroduction of 2 mM Ca^2+ in an external solution. […] Further analyses are presented in FIG. 1I and FIG. 1J, where the second peak of each wave and rate of entry were analyzed. […] The Orai1 and Stim1 puncta in HEK293T cells overexpressed with CFP-Orai1/Stim1-mCherry were assessed. […]
Cell lysates were harvested in RIPA buffer (150 mM NaCl, 1 mM EGTA, 50 mM Tris pH 7.4, 10% glycerol, 1% Triton X-100, 1% sodium deoxycholate, 0.1% SDS, and protease inhibitor cocktail) and collected from culture dish with cell scrapers. […] The protein expression levels were assessed by specific primary antibodies, including antibodies against phosphotyrosine (clone 4G10; Millipore), DDR2 (R&D), α-SMA (Sigma), Collagen 1a1 (Boster), E-cadherin (BD Biosciences), SGLT2 (Proteintech), NHE1 (Novus) and β-actin (Clone C4, Millipore), followed by incubating with secondary antibodies conjugated with HRP and detected by ECL kit (Thermo Scientific).
To examine the impact of these compounds on DDR2 activation, HEK293T cells overexpressing DDR2 were pretreated with various compounds. […] The activation of DDR2 was evaluated using an anti-phosphotyrosine antibody. […]

[2] = system: BLM-induced pulmonary fibrosis; experiment: Bleomycin-induced lung fibrosis mouse model; format: in vivo; conditions: 14 days, Nintedanib 60 mg/kg/day, WRG-28 5 mg/kg/day, Av 5 mg/kg/day
Text: A Bleomycin (BLM)-induced lung fibrosis mouse model was used, and the timelines of operation and drug delivery are depicted in FIG. 11A. […] The hydroxyproline content, serving as a marker of collagen deposition, was extracted from the right lobe and analyzed; the results are shown in FIG. 11C. FIG. 11D depicts histological analysis derived from the left lobe, quantifying the fibrotic area through staining with Masson's Trichrome and Picrosirius red, respectively.
8-to-10-week-old male WT (C57BL/6) mice received intratracheal instillation of bleomycin (bleocin; Nippon Kayaku) at the dose of 3 mg/kg diluted in PBS or PBS only (sham). To study fibrosis, lung samples were collected on day 21 for further analysis.
Lung function was assessed using the flexi Vent system (Scireq, Montreal, QC, Canada). Mice were tracheostomized and ventilated at a rate of 150 breaths/min, tidal volume of 10 ml/kg, and a positive end-expiratory pressure (PEEP) of 2-3 cmH2O. A deep inflation perturbation was used to estimate the inspiratory capacity (IC). Pressure-Volume loops were generated by constant increasing pressure, followed by regular decreasing pressure. Other lung function parameters like resistance, compliance, and elastance were measured by using SnapShot-150.
Levels of hydroxyproline in lung tissues were measured using the Hydroxyproline Colorimetric Assay kit (BioVision, Milpitas, CA, USA). Briefly, 10 mg of frozen right middle lobes homogenized in 100 μL of hydrochloric acid (HCl, 12 N), and hydrolyzed at 120° C. for 3 h. Then, 10 μL of individual samples were used to quantify the absorbance at 560 nm. Hydroxyproline content was presented in μg per lobe.
Mouse left lungs were fixed overnight in 4% paraformaldehyde (PFA), embedded in paraffin, and sectioned in 5 μm thickness for picrosirius red (Abcam, Cambridge, UK) and Masson's trichrome staining (Sigma Aldrich, MO, USA). Measurement of fibrotic area was quantified using ImageJ software (NIH, http://rsbweb.nih.gov/ij/).
The efficacy of WRG-28 and Av in treating pulmonary fibrosis was examined in vivo using a BLM-induced pulmonary fibrosis mouse model for evaluation. 50 μL of Bleomycin (BLM, 3 mg/kg) or PBS were introduced by intratracheal instillation on day 0 to induce fibrosis or serve as the control group, respectively. This was followed by the administration of various compounds for 14 days (Nintedanib: 60 mg/kg/day, WRG-28:5 mg/kg/day, Av: 5 mg/kg/day). Lung function evaluation was conducted on day 21 (FIG. 11A). Nintedanib, an FDA-approved drug for idiopathic pulmonary fibrosis (IPF) treatment, was used as the positive control. The results of the lung function evaluation are depicted in FIG. 11B. […] The degree of these changes can be reversed through treatment with Nintedanib, WRG-28 or Av. […] Histological analysis was conducted through staining techniques to quantify the fibrotic area.

CRAC channel, sequence (Q96D31 whole entry): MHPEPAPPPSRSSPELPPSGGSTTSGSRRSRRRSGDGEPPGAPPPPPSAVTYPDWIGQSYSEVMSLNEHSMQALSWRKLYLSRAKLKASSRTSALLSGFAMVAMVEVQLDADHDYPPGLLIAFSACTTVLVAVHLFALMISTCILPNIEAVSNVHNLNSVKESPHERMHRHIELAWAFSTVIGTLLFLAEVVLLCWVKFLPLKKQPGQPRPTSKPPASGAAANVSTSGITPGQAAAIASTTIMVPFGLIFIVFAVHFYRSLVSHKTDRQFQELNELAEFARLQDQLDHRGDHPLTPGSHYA

Cc1cccc(F)c1C(=O)Nc1cnc(-c2cc3c(cc2Cl)OC(F)(F)O3)cn1 [CM-4620]
secretion of IL-2 in macrophages [1]: significantly reduced
secretion of IL-6 in macrophages [1]: significantly reduced
secretion of TNF-β in macrophages [1]: significantly reduced
secretion of IL-2 in T cells (Jurkat T cells): significantly reduced

COc1cc2c(cc1OC)C(=O)C(CC1CCN(Cc3ccccc3)CC1)C2 (stereo not shown) [Dh, donepezil hydrochloride]
second peak and rate of SOCE (CRAC channel): did not show significant effects
activation of DDR2 (phosphotyrosine) (DDR2): significantly reduced

COC(=O)c1ccc2c(c1)NC(=O)/C2=C(\Nc1ccc(N(C)C(=O)CN2CCN(C)CC2)cc1)c1ccccc1 [Nintedanib]
BLM-induced changes in lung function (capacity, compliance, resistance, elastance) ([2]; day 21): reversed
fibrotic area (Masson's trichrome and Picrosirius Red staining) ([2]; left lobe): effectively reduces
hydroxyproline content (degree of fibrosis) ([2]; right lobe): inhibits the progression of fibrosis

COc1cc2nc(N3CCN(C(=O)C4CCCO4)CC3)nc(N)c2cc1OC (stereo not shown) [Th, terazosin hydrochloride]
activation of DDR2 (phosphotyrosine) (DDR2): significantly reduced
